Experimental data: article PMC8960621, “Solution speciation and human serum protein binding of indium(III) complexes of 8-hydroxyquinoline, deferiprone and maltol” (Journal of Biological Inorganic Chemistry, 2022)
Marks after values point to notes of the source that are not given here.

Tests used:
[1] = pM* / pM values computed at pH 7.4 from stability constants; type: physicochemical; conditions: for pIn (pM = –log[M(III)]): Table S1, does not account for hydrolysis of the metal ion; for pGa* (−log([M] + [M(OH)(1–4)])): pH 7.4, 1 μM Ga(III), computed from stability constants of Ref. 27 (deferiprone) or Ref. 29 (maltol, HQS, HQ); for pGa* (−log([M] + [M(OH)(1–4)])) / pIn* (−log([M] + [M(OH)(1–4)])): 10 μM ligand; for pIn* (−log([M] + [M(OH)(1–4)])): pH 7.4, 1 μM In(III)
Protocol: To compare the In(III) binding ability of the studied four ligands, pIn* (= negative decadic logarithm of the equilibrium concentration of the unbound metal species) values were calculated at pH 7.4 using the determined stability constants (Table 1).
Table S1. Calculated pM values for the studied In(III) complexes and their Ga analogues,
a Computed on the basis of stability constants taken from Ref. [27]. b Computed on the basis of stability
constants taken from Ref. [29] […]

[2] = UV-vis spectrophotometric titrations: proton dissociation constants of the ligands and overall stability constants of their In(III) complexes; type: physicochemical; conditions: T = 25.0 °C, I = 0.20 M (KCl); for logβ [InL2] / logβ [InL3] / logβ [InL]: In(III) complex of the ligand L; for pKa: water
Protocol: (§1) To characterize the solution stability of the In(III) complexes, pH-potentiometric and UV–vis spectrophotometric titrations were performed in water in the presence of 0.20 M chloride ions. However, stability constants for the HQ complexes could be obtained only by the latter method due to their much worse water solubility compared to the other compounds. HQS was involved as a water-soluble analogue of HQ bearing identical coordination mode. Stability constants of deferiprone were also determined by both methods in the present work to validate our experimental setup and data treatment, since the In(III) ‒ deferiprone system was already characterized by Orvig and collaborators. The hydrolysis of In(III) and its interaction with chloride ions were taken into consideration, and stability constants of the hydoxido and chlorido complexes were utilized for our calculations. As a first step, the proton dissociation constants (Ka) were determined for the ligands (Table 1) showing good agreement with the previously published data (see Table 1). The overall stability constants obtained for the octahedral In(III)-deferiprone complexes by both methods (Table 1) are fairly similar to those reported at 150 mM NaCl. […] Complexes with the same stoichiometry were also formed with the O,N-donor containing HQS (Table 1). […] Stability constants for the HQ complexes (Table 1) were determined by the deconvolution of UV–vis spectra recorded at various pH values (Fig. 1a), and the computed molar absorbance spectra for the individual ligand and complex species are shown in Fig. 1b. Due to the lack of d-d or charge transfer bands, the molar absorbance spectra of the complexes represent similar λmax values to that of the completely deprotonated form of the ligand; although, the shape of the spectra is different and is quite similar to that was found for the Ga(III) complexes.
Proton dissociation of the ligands (HQ, HQS, maltol, deferiprone) and overall stability constants and the individual spectra of their complexes were calculated with the computer program PSEQUAD [43]. The spectrophotometric titrations were performed on samples of the ligands with or without In(III); the concentration of the ligands was 0.10 mM, and the metal-to-ligand ratios were 1:1, 1:2, 1:3 and 1:4 over the pH range used in pH-potentiometric measurements at 25.0 ± 0.1 °C at an ionic strength of 0.20 M (KCl).

[3] = pH-potentiometric titrations: proton dissociation constants of the ligands and overall stability constants of their In(III) complexes; type: physicochemical; conditions: pH-pot, T = 25.0 °C, I = 0.20 M (KCl); for logβ [InL2] / logβ [InL3] / logβ [InL]: In(III) complex of the ligand L; for pKa: water
Protocol: as §1
The pH-potentiometric measurements for the determination of the proton dissociation constants of the ligands (HQS, maltol, deferiprone) and the overall stability constants of their In(III) complexes were carried out at 25.0 ± 0.1 °C in water at an ionic strength of 0.20 M (KCl, Sigma-Aldrich). The titrations were performed with a carbonate-free KOH solution of known concentration (0.20 M). An Orion 710A pH-meter equipped with a Metrohm combined electrode (type 6.0234.100) and a Metrohm 665 Dosimat burette were used for the pH-potentiometric measurements. […] The average water ionization constant, pKw, is 13.76 ± 0.01, which corresponds well to literature data. The reproducibility of the titration points included in the calculations was within 0.005 pH units. The pH-potentiometric titrations were performed in the pH range 2.0–11.5. The initial volume of the samples was 10.0 mL, and the ligand concentration was 3 mM and metal ion-to-ligand ratios of 1:1 to 1:4 were used. The fitting of the titration curves was less than 0.01 mL. (The fitting parameter is the average difference between the experimental and calculated titration curves expressed in the volume of the titrant.) Samples were deoxygenated by bubbling purified argon through them for ca. 10 min prior to the measurements. The proton dissociation constants of the ligands, the stoichiometry and the overall stability constants of the complexes were determined with the computer program HYPERQUAD [60]. Overall stability constants of the complexes (β(MpLqHr)) is defined for the general equilibrium pM + qL + rH ⇌ MpLqHr as β (MpLqHr) = [MpLqHr]/[M]^p[L]^q[H]^r where M denotes the metal ion and L the completely deprotonated ligand. Hydrolysis constants for In(III) and stability constants for the In(III)-chlorido complexes (Table 1) are taken from references. The calculations were always made from the experimental titration data measured in the absence of any precipitate in the solution.

[4] = parameters: method as in PMID 25398250; conditions: same LMM competitors in tenfold excess, investigated separately; cited from earlier work
[5] = molecular target: T1, human serum albumin (HSA) (Homo sapiens, UniProt P02768); parameters: method as in PMID 25398250; conditions: cited from earlier work
T1 construct: purchased Sigma-Aldrich A8763
T1 sequence (P02768 25-609): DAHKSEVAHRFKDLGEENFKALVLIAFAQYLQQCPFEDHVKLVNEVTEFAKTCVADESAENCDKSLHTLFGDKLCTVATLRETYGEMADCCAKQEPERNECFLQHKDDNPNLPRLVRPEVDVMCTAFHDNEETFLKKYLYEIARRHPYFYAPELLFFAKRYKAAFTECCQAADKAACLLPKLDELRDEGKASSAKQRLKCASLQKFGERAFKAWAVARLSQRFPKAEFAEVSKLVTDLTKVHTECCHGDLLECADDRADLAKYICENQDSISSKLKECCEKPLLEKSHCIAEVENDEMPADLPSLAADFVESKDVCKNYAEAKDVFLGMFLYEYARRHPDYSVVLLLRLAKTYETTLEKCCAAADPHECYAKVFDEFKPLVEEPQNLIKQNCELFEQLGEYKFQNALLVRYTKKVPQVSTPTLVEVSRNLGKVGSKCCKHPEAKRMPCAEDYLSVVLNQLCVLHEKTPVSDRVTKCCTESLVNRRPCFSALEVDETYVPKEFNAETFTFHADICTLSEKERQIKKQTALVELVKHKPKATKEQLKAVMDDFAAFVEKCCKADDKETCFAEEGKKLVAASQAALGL

[6] = molecular target: T2, apo-transferrin (apoTf) (Homo sapiens, UniProt P02787); conditions: in the presence of NTA; cited from earlier work
T2 construct: purchased Sigma-Aldrich T2036
T2 sequence (P02787 20-698): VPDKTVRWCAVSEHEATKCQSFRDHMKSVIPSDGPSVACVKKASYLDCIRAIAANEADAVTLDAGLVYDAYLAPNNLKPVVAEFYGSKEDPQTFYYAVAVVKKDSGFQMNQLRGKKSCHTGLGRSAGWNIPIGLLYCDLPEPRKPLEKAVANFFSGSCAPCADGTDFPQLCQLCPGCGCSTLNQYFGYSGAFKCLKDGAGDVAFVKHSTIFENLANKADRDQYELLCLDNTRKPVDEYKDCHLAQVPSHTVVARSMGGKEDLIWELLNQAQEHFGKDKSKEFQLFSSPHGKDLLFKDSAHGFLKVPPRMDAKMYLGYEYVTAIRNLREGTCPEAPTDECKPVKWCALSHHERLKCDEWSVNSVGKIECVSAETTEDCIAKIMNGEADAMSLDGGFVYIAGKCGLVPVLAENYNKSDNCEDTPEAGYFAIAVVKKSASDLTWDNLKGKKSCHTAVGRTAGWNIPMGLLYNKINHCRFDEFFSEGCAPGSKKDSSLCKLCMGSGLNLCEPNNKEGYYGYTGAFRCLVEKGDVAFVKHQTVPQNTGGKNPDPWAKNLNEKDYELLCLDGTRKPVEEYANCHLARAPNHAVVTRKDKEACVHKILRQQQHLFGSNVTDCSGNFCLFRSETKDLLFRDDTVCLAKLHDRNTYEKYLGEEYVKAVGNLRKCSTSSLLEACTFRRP

[7] = molecular target: T2, apo-transferrin (apoTf); test: Kinetics of the reaction with apoTf followed by UV-vis spectrophotometry; type: binding; conditions: pH 7.40 (InCl3: 2 equiv.)
Protocol: Firstly, the kinetics of the reaction between apoTf and InCl3 and the complexes was studied by UV–vis spectrophotometry. The reaction of 2 equiv. […] At the same time Harris et al. have observed slow equilibration with InCl3, that was accelerated (to 6 h) in the presence of NTA [18]. In the case of InQ3 and InD3, the progress of apoTf binding could be followed through the ligand bands of the complexes. […] The Ga(III)-analogue GaQ3 interacted within 1 h with apoTf under similar conditions.
For (apo)Tf containing samples, complex concentrations were 20 μM and 0–2.5 equiv. protein was added. Reference spectra for the complexes, ligands and protein were recorded as well. Samples prepared with blood serum contained three-fold diluted serum and 10 μM metal complexes. UV–vis spectra presented in this paper for complexes InD3 or InQ3 are subtracted by the spectrum of reference protein (HSA (apo)Tf or serum) sample in all cases in favour of the better interpretation of the results.

[8] = molecular target: T3, apoTf (Homo sapiens, UniProt P02787); test: Interaction with (apo)Tf: ligand displacement and binding of the intact complex (UV-vis, fluorescence, ultrafiltration); conditions: UV–vis and fluorescence, pH 7.40
T3 construct: purchased Sigma-Aldrich T2036
T3 sequence (P02787 20-698): as above
Protocol: Therefore, UV–vis and fluorescence emission spectra of InQ3 were recorded in the presence of increasing amounts of apoTf (Fig. 5a, b). After a short initial phase, the absorbance band of InQ3 is reduced gradually by the addition of the protein, while the development of the new band at lower wavelengths (at ca. 310 nm) refers to the liberation of HQ. Namely, there is a competition for In(III) ion between the ligand and the iron-binding sites of apoTf. Absorbance values depicted at 370 nm and 310 nm (Fig. 5c) saturate roughly to the corresponding values of the free ligand and outline a sigmoidal shape. Fluorescence intensity of the same sample set (Fig. 5b, d) was enhanced and moderately blue shifted (from λmax = 540 nm to 532 nm) until the addition of ca. 0.2 equiv. apoTf. […] Then, by the addition of more apoTf, intensities decreased and λmax shifted further to shorter wavelengths (527 nm). […] Based on this and the results of apoTf quenching (vide supra) protein binding of the non-dissociated complex is presumed. This is further supported by fluorescence lifetime measurements; where new lifetime components τ3 = 4.7 ± 0.2 ns and τ4 = 13.8 ± 0.4 ns appeared for InQ3 in the presence of 0.1 – 0.3 equiv. apoTf (after 1 min waiting time). […] Here, the sigmoid shape of the UV–vis absorbance was seen again (Fig. S5) and the shifted inflection point in comparison to the titration with apoTf underlines the lower In(III) binding capacity of Tf. […]
In the case of InD3, the absorbance bands of the metal complex and apoTf overlap in great extent, however, spectra can be deconvoluted to the spectra of InD3, deferiprone and apoTf (see Fig S6 for details), and molar fractions of the respective species can be calculated (Fig. 6). Ultrafiltration experiments were carried out as well for the InD3 – apoTf system and the non-protein bound LMM fractions were analyzed by UV–vis spectrophotometry (Fig. 6). […] The complex dissociated in line with the addition of apoTf and a practically quantitative displacement of deferiprone seems to take place by the addition of ca. 0.5 equiv. apoTf. […]

SMILES | pIn (pM = –log[M(III)]) [1] | pGa* (−log([M] + [M(OH)(1–4)])) [1] | pIn* (−log([M] + [M(OH)(1–4)])) [1] | logβ [InL2] [2] | logβ [InL3] [2] | logβ [InL] [2] | pKa ([2]; read-out: pKa (H2L)) | pKa ([2]; read-out: pKa (HL)) | logβ [InL2] [3] | logβ [InL3] [3] | logβ [InL] [3] | pKa ([3]; read-out: pKa (H2L)) | pKa ([3]; read-out: pKa (HL)) | effect of LMM competitors on the complex [4] | interaction with HSA [5] | equilibration time with Tf [6] [h] | time to reach equilibrium in the reaction with apoTf [7] | binding via intermolecular interactions to apoTf (and Tf) [8]
O=S(=O)(O)c1ccc(O)c2ncccc12 [HQS, 8-Hydroyquinoline-5-sulfonate] | 16.23 | 7.92^j | 7.93 | 21.18 ± 0.06 | 29.66 ± 0.06 | 12.29 ± 0.06 | 3.7 ± 0.04 | 8.27 ± 0.04 | 21.31 ± 0.07 | 28.95 ± 0.09 | 12.64 ± 0.05 | 3.89 ± 0.02 | 8.46 ± 0.02 | – | – | – | – | –
Cc1occc(=O)c1O [Maltol, 3-Hydroxy-2-methyl-4H-pyran-4-one] | 14.31 | 6.00^j | 6.01 | 18.78 ± 0.03 | 25.04 ± 0.06 | 10.77 ± 0.03 | – | 8.39 ± 0.02 | 18.59 ± 0.03 | 24.38 ± 0.05 | 11.03 ± 0.03 | – | 8.47 ± 0.01 | – | – | – | – | –
Cc1occc(=O)c1[O-].Cc1occc(=O)c1[O-].Cc1occc(=O)c1[O-].[Ga+3] [GaM3, Tris(3-Hydroxy-2-methyl-4H-pyran-4-onato)gallium(III)] | – | – | – | – | – | – | – | – | – | – | – | – | – | practically not affected | no interaction | – | – | –
[Cl-].[Cl-].[Cl-].[In+3] [InCl3, reference compound] | – | – | – | – | – | – | – | – | – | – | – | – | – | – | – | 6 | ca. 2 h | –
Oc1cccc2cccnc12 [HQ, 8-Hydroxyquinoline] | 16.48 | 7.86^j | 8.18 | 22.87 ± 0.03 | 32.64 ± 0.06 | 13.43 ± 0.06 | 4.9 ± 0.02 | 9.63 ± 0.02 | – | – | – | – | – | – | – | – | – | can be excluded
Cc1c(O)c(=O)ccn1C [Deferiprone, 3-Hydroxy-1,2-dimethylpyridin-4(1H)-one] | 16.25 | 8.83^i | 7.95 | 23.88 ± 0.06 | 33.45 ± 0.03 | 13.72 ± 0.03 | 3.57 ± 0.02 | – | 23.50 ± 0.06^ h | 32.66 ± 0.08^ h | 13.67 ± 0.04^ h | 3.66 ± 0.01 | 9.72 ± 0.01 | – | – | – | – | –
